Measurements from patent publication US20050004094A1, “Cephem compounds” (priority 2003, published 2005).
Values after ≈ are worked out from the molar mass of the structure shown.

Test system: Pseudomonas aeruginosa FP 1456
Experiment: In vitro antibacterial activity, two-fold agar-plate dilution method (MIC)
Assay type: cell-based
Details: incubation at 37° C. for 20 hours; for MIC: FP1456, heart infusion agar, read-out: MIC (minimal inhibitory concentration)
Description: In vitro antibacterial activity was determined by the two-fold agar-plate dilution method as described below. One loopful of an overnight culture of each test strain in Trypticase-soy broth (10^6 viable cells per ml) was streaked on heart infusion agar (HI-agar) containing graded concentrations of representative test compound, and the minimal inhibitory concentration (MIC) was expressed in μg/ml after incubation at 37° C. for 20 hours.

With `CC(C)(O/N=C(\C(=O)N[C@@H]1C(=O)N2C(C(=O)[O-])=C(C[n+]3ccccc3)CS[C@H]12)c1csc(N)n1)C(=O)O` [Ceftazidime, reference compound] the MIC was 32 µg/mL (≈ 58.5 µM).
`Cn1c(CCN)cc[n+]1CC1=C(C(=O)O)N2C(=O)[C@@H](NC(=O)/C(=N\OC(C)(C)C(=O)O)c3nsc(N)n3)[C@H]2SC1.O=S(=O)([O-])O` [Compound (a), 3-[3-(2-aminoethyl)-2-methyl-1-pyrazolio]methyl-7β-[(Z)-2-(5-amino-1,2,4-thiadiazol-3-yl)-2-(1-carboxy-1-methylethoxyimino)acetamido]-3-cephem-4-carboxylic acid hydrogen sulfate] showed an MIC of 1 µg/mL.
In the case of `Cn1c(CCNC(=N)N)cc[n+]1CC1=C(C(=O)[O-])N2C(=O)[C@@H](NC(=O)/C(=N\OC(C)(C)C(=O)O)c3nsc(N)n3)[C@H]2SC1` [Compound (b), 3-{[3-(2-{[amino(imino)methyl]amino}ethyl)-2-methyl-1-pyrazolio]methyl}-7β-({(2Z)-2-(5-amino-1,2,4-thiadiazol-3-yl)-2-[(1-carboxy-1-methylethoxy)imino]ethanoyl}-amino)-3-cephem-4-carboxylate], the MIC is reported as 2 µg/mL (≈ 3.15 µM).
With `Cn1cc(CCN)c[n+]1CC1=C(C(=O)[O-])N2C(=O)[C@@H](NC(=O)/C(=N\OC(C)(C)C(=O)O)c3nsc(N)n3)[C@H]2SC1` [Compound (c), 3-{[4-(2-aminoethyl)-2-methyl-1-pyrazolio]methyl}-7β-({(2Z)-2-(5-amino-1,2,4-thiadiazol-3-yl)-2-[(l-carboxy-1-methylethoxy)imino]ethanoyl}amino)-3-cephem-4-carboxylate] the “MIC (minimal inhibitory concentration)” value (heart infusion agar) was 2 µg/mL (≈ 3.37 µM).
